According to the supplement of paper PMC11061612:

How the values were obtained:
[1] = tested on: CAL-85-1 (Breast Carcinoma); test: combination Emax (second highest fraction inhibited in the dose matrix, 72 h); higher = more inhibition; extreme values may be limits of the assay
Procedure, shortened: (§1)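 Cell lines in DMEM/F12 or RPMI with 10% FBS were plated in 1536-well plates, held 24 hours at 37°C, 5% CO2, then given two-drug dose matrices for 72 hours (DMSO typically 0.2%). Viability was read by CellTiter-Glo 2.0 luminescence and scaled as inhibition from 0 (vehicle wells) to 1 (blank wells). Combination Emax is the second-highest inhibition in the matrix; Bliss excess is observed combination effect minus expected EA + EB − EA·EB, EA and EB being single-agent effects.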

SK-MEL-24 (Melanoma) = test: as above
Procedure, shortened: as §1

[2] = tested on: SW1463 (Colorectal Carcinoma); test: as above
Procedure, shortened: as §1

[3] = tested on: NTERA-2-cl-D1 (Other Solid Carcinomas); test: as above
Procedure, shortened: as §1

[4] = tested on: NCI-H1648 (Lung Adenocarcinoma); test: as above
Procedure, shortened: as §1

[5] = tested on: SBC-3 (Small Cell Lung Carcinoma); test: as above
Procedure, shortened: as §1

[6] = tested on: NCI-H835 (Other Solid Carcinomas); test: as above
Procedure, shortened: as §1

[7] = tested on: NCI-H1435 (Non-Small Cell Lung Carcinoma); test: as above
Procedure, shortened: as §1

HT-144 (Melanoma) = test: as above
Procedure, shortened: as §1

[8] = tested on: ATN-1 (T-Lymphoblastic Leukemia); test: as above
Procedure, shortened: as §1

[9] = tested on: OCI-M1 (Acute Myeloid Leukemia); test: as above
Procedure, shortened: as §1

RVH-421 (Melanoma) [10] = test: as above
Procedure, shortened: as §1

[11] = tested on: SBC-5 (Small Cell Lung Carcinoma); test: as above
Procedure, shortened: as §1

[12] = tested on: NCI-H1048 (Small Cell Lung Carcinoma); test: as above
Procedure, shortened: as §1

[13] = tested on: TK (B-Cell Non-Hodgkin's Lymphoma); test: as above
Procedure, shortened: as §1

[14] = tested on: NCI-H2170 (Squamous Cell Lung Carcinoma); test: as above
Procedure, shortened: as §1

[15] = tested on: IGROV-1 (Ovarian Carcinoma); test: as above
Procedure, shortened: as §1

RVH-421 (Melanoma) [16] = test: Bliss excess, mean over the matrix (fraction); higher = more synergy
Procedure, shortened: as §1
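Throughout, for Bliss excess, mean over the matrix: after 72 h of two-drug dosing.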

Compound	combination Emax [1]	combination Emax (SK-MEL-24 (Melanoma))	combination Emax [2]	combination Emax [3]	combination Emax [4]	combination Emax [5]	combination Emax [6]	combination Emax [7]	combination Emax (HT-144 (Melanoma))	combination Emax [8]	combination Emax [9]	combination Emax (RVH-421 (Melanoma) [10])	combination Emax [11]	combination Emax [12]	combination Emax [13]	combination Emax [14]	combination Emax [15]	Bliss excess (RVH-421 (Melanoma) [16])
N#Cc1cnc(Nc2cc(NC[C@H]3CNCCO3)c(C(F)(F)F)cn2)cn1 [SRA737] + Nc1ccn([C@@H]2O[C@H](CO)[C@@H](O)C2(F)F)c(=O)n1 [Gemcitabine] (first compound max 10 µM, 7x7, partner max 0.3 µM)	0.743	0.814	0.848	0.54	0.666	0.97	0.321	0.411										
CN(CCO)CC[C@H](CSc1ccccc1)Nc1ccc(S(=O)(=O)NC(=O)c2ccc(N3CCC([C@@H](O)c4ccccc4-c4ccc(Cl)cc4)CC3)cc2)cc1S(=O)(=O)C(F)(F)F [AZD4320] + C[C@@H](Nc1cc(F)cc(F)c1)c1cc(C(=O)N(C)C)cc2c(=O)cc(N3CCOCC3)oc12 [AZD8186] (first compound max 1 µM, 7x7, partner max 3 µM)	0.668	0.772	0.27	0.976	0.812	0.979		0.966	0.455	0.807	1	0.464	0.41	0.962	0.999	0.764	0.832	0.0798
Cc1cc2ncnn2cc1Nc1ncc2c(n1)n(C1CCOCC1)c(=O)n2C [AZD7648] + O=C(c1cc(Cc2n[nH]c(=O)c3ccccc23)ccc1F)N1CCN(C(=O)C2CC2)CC1 [Olaparib] (first compound max 10 µM, 7x7, partner max 10 µM)	0.337	0.211	0.0764	0.534	0.328	0.451		0.149	0.232	0.356	0.173	0.0825	0.218	0.412	0.26	0.411	0.598	-0.0684
N#Cc1cnc(Nc2cc(NC[C@H]3CNCCO3)c(C(F)(F)F)cn2)cn1 [SRA737] + CCc1c2c(nc3ccc(O)cc13)-c1cc3c(c(=O)n1C2)COC(=O)[C@]3(O)CC [SN-38] (first compound max 10 µM, 7x7, partner max 0.3 µM)	0.746	0.73	0.758	0.624	0.849	0.935	0.402	0.46										
N#Cc1cnc(Nc2cc(NC[C@H]3CNCCO3)c(C(F)(F)F)cn2)cn1 [SRA737] + O=c1[nH]cc(F)c(=O)[nH]1 [5-Fluorouracil] (first compound max 10 µM, 7x7, partner max 20 µM)	0.555	0.314	0.402	0.464	0.208	0.66	0.391	0.164										
Cc1cc2ncnn2cc1Nc1ncc2c(n1)n(C1CCOCC1)c(=O)n2C [AZD7648] + COc1cc([C@@H]2c3cc4c(cc3[C@@H](O[C@@H]3O[C@@H]5CO[C@@H](C)O[C@H]5[C@H](O)[C@H]3O)[C@H]3COC(=O)[C@H]23)OCO4)cc(OC)c1O [Etoposide] (first compound max 10 µM, 7x7, partner max 10 µM)	0.629	0.677	0.371	0.575	0.424	0.94	0.692	0.286										
CN(CCO)CC[C@H](CSc1ccccc1)Nc1ccc(S(=O)(=O)NC(=O)c2ccc(N3CCC([C@@H](O)c4ccccc4-c4ccc(Cl)cc4)CC3)cc2)cc1S(=O)(=O)C(F)(F)F [AZD4320] + C[C@@H]1COCCN1C2=NC(=NC(=C2)C3(CC3)[S@](=N)(=O)C)C4=C5C=CNC5=NC=C4 [AZD6738] (first compound max 1 µM, 7x7, partner max 10 µM)	0.633	0.556	0.566		0.872	0.925		0.852	0.765	0.978	1	0.387	0.771	0.981	1	0.829	0.876	-0.0511
C[C@@H](c1ccc2nccn2c1)n1nnc2ncc(-c3cnn(C)c3)nc21 [Savolitinib] + Cc1c2c(nn1C)CSCc1cc(n(C)n1)CSc1cc(c3ccccc3c1)OCCCc1c(C(=O)O)n(C)c3c-2c(Cl)ccc13 [AZD5991] (first compound max 1 µM, 7x7, partner max 1 µM)	0.0993	0.225	0.255	0.422	0.453	0.135	0.177	0.122	0.833	0.904	0.186		0.538	0.196	0.129	0.211	0.157	
COc1cc2ncnc(Nc3ccc(F)c(Cl)c3)c2cc1OCCCN1CCOCC1 [Gefitinib] + CC(C)n1c(=O)n(C)c2cnc3cc(F)c(-c4ccc(OCCCN5CCCCC5)nc4)cc3c21 [AZD1390] (first compound max 10 µM, 7x7, partner max 0.3 µM)	0.466	0.246	0.728	0.284	0.646	0.107	0.144	0.114	0.314	0.296	0.0417		0.0706	0.0795	0.076	0.784		
Cc1nc(Nc2ncc(C(=O)Nc3c(C)cccc3Cl)s2)cc(N2CCN(CCO)CC2)n1 [Dasatinib] + CC(=O)Nc1cccc(-n2c(=O)n(C3CC3)c(=O)c3c(Nc4ccc(I)cc4F)n(C)c(=O)c(C)c32)c1 [Trametinib] (first compound max 2 µM, 7x7, partner max 1 µM)	0.853	0.815	0.786	0.504	0.876	0.528	0	0.42	0.703	0.591	0.884		0.409	0.144	0.145	0.537	0.956	
CN(CCO)CC[C@H](CSc1ccccc1)Nc1ccc(S(=O)(=O)NC(=O)c2ccc(N3CCC([C@@H](O)c4ccccc4-c4ccc(Cl)cc4)CC3)cc2)cc1S(=O)(=O)C(F)(F)F [AZD4320] + CC(=O)O[C@H]1C(=O)[C@@]2(C)[C@H]([C@H](OC(=O)c3ccccc3)[C@]3(O)C[C@H](OC(=O)[C@H](O)[C@@H](NC(=O)c4ccccc4)c4ccccc4)C(C)=C1C3(C)C)[C@]1(OC(C)=O)CO[C@@H]1C[C@@H]2O [Paclitaxel] (first compound max 1 µM, 7x7, partner max 3 µM)	0.884	0.888	0.767	0.754	0.936	1	1	0.929										
C[C@@H](c1ccc2nccn2c1)n1nnc2ncc(-c3cnn(C)c3)nc21 [Savolitinib] + CC1(C)CCC(CN2CCN(c3ccc(C(=O)NS(=O)(=O)c4ccc(NCC5CCOCC5)c([N+](=O)[O-])c4)c(Oc4cnc5[nH]ccc5c4)c3)CC2)=C(c2ccc(Cl)cc2)C1 [Venetoclax] (first compound max 1 µM, 7x7, partner max 1 µM)	0.146	0.154	0.247	0.257	0.153	0.118	0.148	0.177	0.117	0.186	0.102		0.33	0.178	0.907	0.162	0.152	
CN(CCO)CC[C@H](CSc1ccccc1)Nc1ccc(S(=O)(=O)NC(=O)c2ccc(N3CCC([C@@H](O)c4ccccc4-c4ccc(Cl)cc4)CC3)cc2)cc1S(=O)(=O)C(F)(F)F [AZD4320] + Nc1ccn([C@@H]2O[C@H](CO)[C@@H](O)C2(F)F)c(=O)n1 [Gemcitabine] (first compound max 1 µM, 7x7, partner max 0.3 µM)	0.702	0.901	0.455	0.663	0.49	1	0.966	0.823										
N#Cc1cnc(Nc2cc(NC[C@H]3CNCCO3)c(C(F)(F)F)cn2)cn1 [SRA737] + C=CCn1c(=O)c2cnc(Nc3ccc(N4CCN(C)CC4)cc3)nc2n1-c1cccc(C(C)(C)O)n1 [AZD1775] (first compound max 10 µM, partner max 1 µM)	0.476	0.46	0.629	0.483	0.621	0.86	0.546	0.267										
C[C@@H](c1ccc2nccn2c1)n1nnc2ncc(-c3cnn(C)c3)nc21 [Savolitinib] + CN(CC[C@H](CSC1=CC=CC=C1)NC2=C(C=C(C=C2)S(=O)(=O)NC(=O)C3=CC=C(C=C3)N4CCC(CC4)[C@H](C5=CC=CC=C5C6=CC=C(C=C6)Cl)O)S(=O)(=O)C(F)(F)F)CCO [AZD4320] (first compound max 1 µM, 7x7, partner max 1 µM)									0.189	0.679	0.993		0.326	0.593	0.987	0.657	0.219	
